# PMC8952293, “A Histone Deacetylase (HDAC) Inhibitor with Pleiotropic In Vitro Anti-Toxoplasma and Anti-Plasmodium Activities Controls Acute and Chronic Toxoplasma Infection in Mice” (International Journal of Molecular Sciences, 2022)
# Where two headings read alike, the source gives them in different places.
# Assays:
# Huh7 cells = experiment: Host cell viability (cell confluency, AlamarBlue) in the hepatic infection assay; assay type: cell-based, human; conditions: at the tested concentrations (up to 500 nM)
# Experimental: (§1) Liver stage. The action of JF363 against the liver stage of P. berghei infection was assessed by bioluminescence, as previously described. Briefly, one day before infection, Huh7 cells were seeded in 96-well plates. JF363 stock solution was prepared in dimethyl sulfoxide (DMSO) and serially diluted in infection medium (culture medium supplemented with 50 µg/mL of gentamicin and 0.8 µg/mL of fungizone) to obtain the test concentrations (1, 10, 25, 50, […], 500 nM). These were added to the cells and incubated for 1 h at 37 °C and 5% CO2, after which 1 × 10^4 sporozoites were added to the wells. Plates were centrifuged at 1800× g for 5 min and incubated at 37 °C with 5% CO2 for the assay duration. At 46 h post-infection, the impact of the compound on cell viability was assessed by the AlamarBlue assay (Invitrogen, Carlsbad, CA, USA), following the manufacturer’s instructions. Following the manufacturer’s instructions, the drug’s effect on the parasite load was next evaluated using the Firefly Luciferase Assay Kit 2.0 (Biotium, Fremont, CA, USA). For IC50 determination, nonlinear regression analysis was employed to fit the normalized results of the dose–response curves, using GraphPad Prism 8 (Prism 4 for Mac OS X, version 5.0b, San Diego, CA, USA).
# [1] = test system: P. berghei hepatic infection; experiment: In vitro P. berghei hepatic infection of Huh7 cells (bioluminescence); assay type: cell-based; conditions: Plasmodium berghei, Huh-7
# Experimental: Huh7 cells, a human hepatic cell line employed in the assessment of drug activity against the hepatic stage of P. berghei infection, were cultured in RPMI 1640 supplemented with 10% (v/v) fetal bovine serum, 1% (v/v) penicillin/streptomycin, 1% (v/v) glutamine, 1% (v/v) nonessential amino acids, and 10 mM N-2-hydroxyethylpiperazine-N′-2-ethanesulfonic acid (HEPES) at 37 °C and 5% CO2. For infection, Huh7 cells were seeded in 96-well plates at 1 × 10^4 cells/well.
# as §1, with “These were added to the cells and incubated for 1 h at 37 °C and 5% CO2, after which 1 × 10^4 sporozoites were added to the wells. Plates were centrifuged at 1800× g for 5 min and incubated at 37 °C with 5% CO2 for the assay duration.” left out, “For IC50 determination, nonlinear regression analysis was employed to fit the normalized results of the dose–response curves, using GraphPad Prism 8 (Prism 4 for Mac OS X, version 5.0b, San Diego, CA, USA).” left out
# Toxoplasma gondii = experiment: In vitro anti-Toxoplasma proliferation in infected HFF monolayers (parasitic index, ScanR microscopy); assay type: cell-based
# Experimental: To investigate the effect of the JF363 on parasite proliferation, human HFFs were infected and treated with JF363 (concentrations ranging from 0 to 2 μM). After 24 h of culture, parasites were enumerated within the parasitophorous vacuole, and the IC50 was calculated for each parasite strain (Table 1).
# To assess the drug activity on Toxoplasma gondii, confluent HFF monolayers were infected with parasites, 5 × 10^4 per well, then centrifuged for 30 s at 500× g and incubated for 30 min in a water bath at 37 °C to allow invasion. The wells were then washed three times with phosphate-buffered saline (PBS) to eliminate extracellular parasites, and drugs were added at various concentrations ranging from 1 to 2 μM in triplicate. After 24 h incubation at 37 °C in a humidified atmosphere containing 5% CO2, Hoechst 33342 (5 μg/mL) was added to host cells infected by parasites and further incubated for 20 min. After two washes, cells were fixed with 3.7% formaldehyde for 10 min at 37 °C.
# In experiments using nonfluorescent parasites, Toxoplasma vacuoles were fixed for 15 min with 3.7% formaldehyde and stained with anti-GRA1 mAb diluted 1/500 in 2% bovine serum albumin (BSA) and 0.1% Triton X-100 in PBS, for 1 h at room temperature. After two washes, goat serum anti-mouse IgG (H + L)–Alexa-488 (1/500) was added for 20 min. Finally, Hoechst 33342 was added as described above.
# The number of infected cells, i.e., cells harboring parasitophorous vacuoles, and the number of parasites per vacuole were determined using an Olympus ScanR microscope (×20 objective) and ScanR software. First, the parasitic index (PI) in % compared to the control was calculated as follows: PI = ((number of parasite/100 cells in treated wells) × (% of infected HFFs in treated well)/(number of parasite/100 cells in untreated wells) × (% of infected HFFs in untreated wells)) × 100. Then, the 50% inhibitory concentration (IC50) was calculated using Prism software (Prism 4 for Mac OS X, version 5.0b, San Diego, CA, USA).
# [2] = test system: T. gondii type I RH strain; experiment: Acute toxoplasmosis survival study in CD1 mice; assay type: in vivo, mouse; conditions: for mouse survival, by day: once a day for 7 days, untreated infected mice succumbed by day 9
# Experimental: To determine the in vivo anti-Toxoplasma effect of the molecule JF363 during the acute phase of infection, we analyzed the survival rate of non-inbred CD1 mice infected by the type I RH strain treated for […]. […] All untreated and infected mice succumbed by day 9 (Figure 3).
# Non-inbred CD1a mice (Janvier Labs, Le Genest-Saint-Isle, France) were intraperitoneally infected with 100 tachyzoites of RH YFP strain in […] of PBS. Six hours post-infection and then once a day for 7 days, mice were treated per os with either 40 or 160 mg/kg of JF363 prepared in corn oil/5% DMSO. Control animals were treated with the vehicle alone. Animals were monitored each day and sacrificed when the limit points were reached.
# P. falciparum NF54 = experiment: In vitro P. falciparum erythrocytic infection (SYBR green I flow cytometry); assay type: cell-based; conditions: Plasmodium falciparum, PfNF54 blood stage, 48 h, three independent experiments
# Experimental: Blood stage. Ring-stage synchronized cultures of PfNF54 at 2.5% hematocrit and at approximately 1% parasitemia were incubated with drugs or DMSO (vehicle control) in 96-well plates, for 48 h, at 37 °C in a 5% CO2 and 5% O2 atmosphere. The stock solution of JF363 was prepared in DMSO. Working solutions (1, 10, 100, 200, 500, 1000, 2000 nM) were prepared from the stock solution in a complete malaria culture medium (CMCM), which consisted of RPMI 1640 supplemented with 25 mM HEPES, 2.4 mM L-glutamine, 50 μg/mL gentamicin, 0.5% w/v AlbuMAX (Gibco BRL), 11 mM glucose, 1.47 mM hypoxanthine, and 37.3 mM NaHCO3. Five microliters of the culture (approximately 800,000 cells) was stained with the DNA-specific dye SYBR green I for each measurement. Following 20 min incubation in the dark, the stained sample was analyzed by flow cytometry. For each flow cytometry measurement, approximately 100,000 events were analyzed. All samples were analyzed in triplicate, and three different experiments were performed and analyzed using GraphPad Prism 8 (Prism 4 for Mac OS X, version 5.0b, San Diego, CA, USA).
structure (smiles),measurement,setting,value
COc1cccc(CC(=O)Nc2ccc(C(=O)NO)cc2)c1 [JF363],toxicity towards the hepatic host cells (cell confluency),Huh7 cells,did not present toxicity
same,IC50,"[1]; Pb hepatic infection, Huh7 cells, 46 h post-infection",98.9 ± 22.7 nM
same,IC50,[1]; hepatic stage of Plasmodium infection (discussion),~100 nM
same,IC50,"Toxoplasma gondii; 24 h, read-out: IC50 range, strains other than haplogroup I and II, 24 h",170 to 430 nM
same,IC50,"Toxoplasma gondii; 24 h, strain GUY008-ABE, haplogroup 5, clade F, 24 h, mean ± SD of 3 experiments",300 ± 210 nM
same,IC50,"Toxoplasma gondii; 24 h, strain GUY009-AKO, haplogroup 10, clade F, 24 h, mean ± SD of 3 experiments",430 ± 120 nM
same,IC50,"Toxoplasma gondii; 24 h, strain GUY021-TOJ, haplogroup 10, clade F, 24 h, mean ± SD of 3 experiments",270 ± 30 nM
same,IC50,"Toxoplasma gondii; 24 h, strain GUY-JAG1, haplogroup 11, no clade, 24 h, mean ± SD of 3 experiments",170 ± 340 nM
same,IC50,"Toxoplasma gondii; 24 h, strain MAS, haplogroup 4, clade B, 24 h, mean ± SD of 3 experiments",210 ± 10 nM
same,IC50,"Toxoplasma gondii; 24 h, strain Prugniaud, haplogroup 2, clade D, 24 h, mean ± SD of 3 experiments",270 nM
same,IC50,"Toxoplasma gondii; 24 h, strain RH-YFP, haplogroup 1, clade A, 24 h, mean ± SD of 3 experiments",560 ± 50 nM
same,IC50,"Toxoplasma gondii; 24 h, strain VEG, haplogroup 3, clade C, 24 h, mean ± SD of 3 experiments",180 ± 70 nM
same,IC50,"Toxoplasma gondii; all tested T. gondii strains, depending on the haplogroup, read-out: IC50 range",170 to 560 nM
same,"mouse survival, by day",[2]; 40 mg/kg oral,11 days
same,increase of mouse survival,"[2]; 40 mg/kg oral, lethal dose of RH strain",two days
same,"mouse survival, by day",[2]; 160 mg/kg oral,14 days
same,IC50,P. falciparum NF54,230 ± 15 nM
